Columns and labels:
Format in all cases: cell-based, human
K562 exosomes = assay: Western blot of exosomal proteins (Alix, vimentin, mortalin), K562; settings: K562 cells, 48 hr treatment
Description: 7-7. Protein analysis by Western blotting. Exosomes were isolated from cell culture supernatants as described above. Protein concentrations were determined by measuring absorbance at 280 nm (Nanodrop 2000). Cultured cells were treated with PEG-SMR-Clu, SMR-CPP peptides, MKT-077, Omeprazole or DMA at 37° C. for 48 hr. To evaluate mortalin, vimentin and exosome expression, Western blot analysis was performed using anti-mortalin (Grp-75), anti-Vimentin and anti-Alix antibodies, respectively (FIG. 12).
Exosomes and cell lysates were prepared by incubating 5-10 min at 95° C. in sample buffer. The lysates were subjected to SDS-PAGE under reducing conditions (150 mM DTT) in 4-20% Criterion™ TGX™ precast gels (BioRad, Hercules, Calif.) and then transferred onto a nitrocellulose membrane (Bio-Rad, Hercules, Calif.). Nitrocellulose membranes were blocked with 5% skim milk (MedSupply, Atlanta, Ga.) in TBS containing 0.05% Tween 20 (TBST) for 1 h at room temperature. The membranes were treated with anti-mortalin (Grp-75) mAb or anti-α-tubulin mAb for cell lysates (FIG. 15, Panels A and B) or with anti-Alix and anti-vimentin or anti-mortalin for exosomes (FIG. 12), followed by peroxidase-conjugated goat anti-mouse IgG. Bands were developed with an ECL chemiluminescent substrate (Santa Cruz Biotechnology, Santa Cruz, Calif.) and exposed to an ImageQuant LAS 4000 imaging system (GE Healthcare, Piscataway, N.J. 08854).

[1] = tested on: MDA-MB-231 breast cancer cells; assay: Exosome release by acetylcholinesterase (AchE) assay, MDA-MB-231; settings: for average AChE concentration day 1 to 5: MDA-MB-231 cells, five-day treatment
Description: (§1) 1-6. Exosome isolation and purification. Exosomes were isolated from breast cancer cells by differential centrifugation as previously described (Ali SA. et al., 2010). Untreated tumor cells were used as a control. Briefly, the above treated and untreated cell culture supernatants were centrifuged at 400×g for 10 minutes. The supernatants were transferred to a clear tube and centrifuged at 10,000×g for 30 minutes. The supernatants from the second spin were ultracentrifuged at 200,000×g for 2 hours to pellet exosomes. Finally, the exosome pellets were re-suspended with PBS and stored at 4° C. until used for analysis.
(§2) 1-7. Exosome characterization by acetylcholinesterase (AchE) assay. Purified exosomes were quantitated by measurement of AchE as described (Ellman et al., 1961). Briefly, a 100 mM dithibionitrobenzoic (DTNB) solution was prepared for use as a stock color indicator, and a 28.9 mg/mL acetylthiocholine iodide in PBS solution was prepared as a stock substrate. The stock substrate stock can be stored at −20° C. up to one month, while the color indicator can be stored at 4° C. for two weeks. A working solution was prepared by mixing 10 mL of PBS with 200 μL of Substrate and 500 μl of DTNB. 50 μL of each exosome sample was transferred to 96 well microtitre plates, and a standard curve was prepared using AchE from 0.98 mU/mL to 2000 mU/mL. After 50 μL of standards were added into separate wells, 200 μL of the working solution was added to all wells. After 20 min incubation, AchE activity was measured at 450 nm using a SpectroMax M5 fluorimeter.
(§3) 7-5. Exosome isolation and purification. Exosomes were isolated from breast cancer cells and leukemia cells using the ExoQuick-TC Exosome Precipitation Kit (System Biosciencences [SBI], Mountain View Calif.) or the miRCURY Exosome Isolation Kit (EXIQON, Woburn, Mass.) according to the manufacturer's instructions. Untreated tumor cells were used as a control. Briefly, treated and untreated cell culture supernatants (10 mL) were centrifuged at 3000×g for 15 minutes. The resulting supernatants were transferred to a clear tube, 2 mL of ExoQuick-TC buffer was added, mixed and incubated overnight at 4° C. Following the incubation, the sample contents were centrifuged at 1500×g for 30 minutes, the supernatants were aspirated off, the pellets were centrifuged at 1500×g for 5 minutes and any further traces of supernatant were removed (SBI). Alternatively, treated and untreated cell culture supernatants were centrifuged at 10,000×g for 5 minutes to remove cell debris, supernatants (10 ml) were transferred into new tubes, and 4 mL of precipitation buffer (EXIQON) was added, and the contents were mixed and incubated at 4° C. overnight. Following the incubation, the sample contents were centrifuged at 10,000×g for 30 minutes (EXIQON). Exosome-containing pellets were re-suspended in PBS and stored at 4° C. or −80° C.
(§4) 7-6. Exosome characterization by acetylcholinesterase (AchE) assay. Purified exosomes were quantitated by measurement of AchE as previously described (Huang et al., Oncotarget, 2017. 8(7): pp. 11302-11315). Briefly, 100 mM dithibionitrobenzoic (DTNB) was prepared as a stock color indicator, and prepared a stock substrate containing 28.9 mg/mL of acetylthiocholine iodide in PBS. Substrate stock can be stored at −20° C. up to one month; the stock color indicator can be stored at 4° C. for two weeks. A working solution was prepared by mixing 10 mL of PBS with 200 μL of substrate and 500 μl of DTNB. 50 μL of each exosome sample was transferred to a 96 well microtitre plate, and a standard curve for AchE concentrations was prepared using AchE from 0.98 mU/mL to 2000 mU/mL. After 50 μL of standards were added into separate wells, 200 μL of the working solution was added to each well. After a 20 min incubation, AchE activity was measured at 450 nm using a SpectroMax M5 fluorometer (FIG. 11).

MCF-7 cells = assay: Complement-mediated cell cytotoxicity assay (trypan blue), MCF-7; settings: for cell death under complement-positive conditions: 280 nM PEG-SMRwt-Clu or 560 nM SMRwt-CPP 60 min, then anti-CXCR4 antibody and NHS 60 min; for cell death under complement-negative conditions: 280 nM PEG-SMRwt-Clu or 560 nM SMRwt-CPP, 60 min
Description: 7-9. Complement-mediated cell cytotoxicity assay. Complement-mediated cell cytotoxicity assays were performed as previously described (Reiter et al., Mol Immunol. (1992) 29(6): p. 771-81). Briefly, MCF-7, MDA-MB-231 and K562 cells were either mock-transfected or transfected with mortalin siRNA. Cells were incubated with 1 μg/ml of anti-CXCR4 antibody for 30 min at 4° C., followed by treatment with PEG-SMRwt-Clu peptide or PEG-SMRmut-Clu peptide or SMRwt-CPP peptide or SMRmut-CPP peptide alone, or treated with SMR peptide combined with complement from normal human serum (NHS) or heat-inactivated normal human serum (NIS) for 60 min at 37° C. Percentage of cells lysed were determined by a trypan blue exclusion assay using the TC10™ Automated Cell Counter (Bio-Rad, Richmond Calif.). (FIG. 14, FIG. 15, Panel D).

[2] = tested on: MCF-7 breast cancer cells; assay: Exosome release by acetylcholinesterase (AchE) assay, MCF-7; settings: for average AChE concentration days 1 to 5: MCF-7 cells, five-day treatment
Description: as §1, §2, §3, §4

NXNVGFPVAAVGFPVHPLSKHPYWSQP (SEQ ID NO: 37) [PEG-SMRwt-Clu]
Alix expression in exosomes (K562 exosomes): significantly decreased
Mortalin expression in exosomes (K562 exosomes): significantly decreased
AchE activity in exosomes ([1]; MDA-MB-231 cells treated 48 hr, control exosomes 118.48 mU/mL): 66.77 mU/mL
average AChE concentration day 1 to 5 [1]: 42 mU/mL
cell death under complement-positive conditions (MCF-7 cells): 26%
cell death under complement-negative conditions (MCF-7 cells): 2.1%
AchE activity in exosomes ([2]; MCF-7 cells treated 48 hr, control exosomes 113.49 mU/mL): 41.95 mU/mL
average AChE concentration days 1 to 5 [2]: 31 mU/mL

VGFPVAAVGFPVGRKKRRQRRRPPQ [SMRwt-CPP]
Alix expression in exosomes (K562 exosomes): significantly decreased
Mortalin expression in exosomes (K562 exosomes): significantly decreased
average AChE concentration day 1 to 5 [1]: 29 mU/mL
cell death under complement-positive conditions (MCF-7 cells): 29%
cell death under complement-negative conditions (MCF-7 cells): 2.1%
average AChE concentration days 1 to 5 [2]: 22 mU/mL

— patent US11472846B2, “Compositions and methods for treating diseases by inhibiting exosome release” (priority 2016, dated 2022)
